From patent publication US20220313708A1, “COMBINATION PRODUCT CONTAINING LIMONOID COMPOUND AND SGLT-2 INHIBITOR” (ZHEJIANG YANGSHENGTANG INSTITUTE OF NATURAL MEDICATION CO., …, priority 2019, published 2022) come the findings set out here.

Common to all, as to type: in vivo
Assay [1] deals with mouse pancreatic islet β-cell injury model (STZ). Description: Blood glucose in STZ mouse pancreatic islet β-cell injury model (Example 3, empagliflozin). The conditions noted are these: STZ ICR mice; single agent 0.1 g/kg per day by gavage, two weeks; 1 h after last administration; mean ± SD. The text has this: In this example, a mouse pancreatic islet β-cell injury model was established by modeling ICR mice with streptozotocin (STZ) (Li Nan et al., Protective effect of pine pollen on kidney damage in diabetic nephropathy mice, Science and Technology Review, 2014, 32 (4/5): 95-99), and used to complete the evaluation of hypoglycemic effect in animals (this model could simulate pancreatic islet β-cell damage state of type I and type II diabetics). The limonoid compound was selected from the group consisting of ichangin, ichangensin, and ichangin glycoside, and empagliflozin single administration group, ichangin single administration group, ichangensi single administration group, ichangin glycoside singe administration group, and respective combination thereof with empagliflozin administration groups were set.
(§1) Conditions of experimental feeding: ICR mice (20±2 g), aged 6 weeks, purchased from Zhejiang Academy of Medical Sciences, and subjected to experimental feeding after 7 days of preliminary feeding. It should be noted that the conditions for raising the mice were as follows: the temperature was 23±1° C., the humidity was 55±10%, the lights were turned on between 7 am and 7 pm (the lights were turned off at other time), and the mice were allowed to freely take in water and feed. […]

The test system of assay [2] is mouse type II diabetes model (db/db mice). Description: Serum insulin by ELISA in db/db mouse type II diabetes model (Example 4). The conditions noted are these: single agent 0.2 g/kg per day by gavage, two weeks, mean ± SD. An excerpt: (§2) In the present embodiment, the limonoid compound was selected nomilin, deacetylnomilin, nomilin acid, deacetylnomilin acid glycoside, and ipragliflozin single administration group, nomilin single administration group, deacetylnomilin single administration group, nomilin acid single administered group, deacetylnomilin acid glycoside single administration group, and respective combination thereof with ipragliflozin administration groups were set.
(§3) Conditions for experimental feeding: as type II diabetes model mice, 6-week-old SPF-grade db/db mice were purchased from the Nanjing Model Biology Institute, and subjected to experimental feeding after 7 days of preliminary feeding. It should be noted that the conditions for raising the mice were as follows: the temperature was 23±1° C., the humidity was 55±10%, the lights were turned on between 7 am and 7 pm (the lights were turned off at other time), and the mice were allowed to freely take in water and feed. The experimental feed was mouse growth-stable feed (GB M2118), and the daily feeding and management of the animals were under the responsibility of the animal security department, which provided the animals with sufficient diet and fresh drinking water daily.
(§4) Experimental grouping: male db/db mice (20±2 g) were selected, 18 male mice in each group were tested, and drinking bottles were sterilized weekly. […]

Assay [3] has the same test system. Description: Blood glucose in db/db mouse type II diabetes model (Example 4, ipragliflozin). The conditions noted are these: single agent 0.2 g/kg per day by gavage, two weeks, 1 h after last administration, mean ± SD.
Description: as §2, §3, §4

Assay [4] has the same test system. The experiment in a line: Blood glucose in db/db mouse type II diabetes model (Example 2, dapagliflozin). The conditions noted are these: single agent 0.04 g/kg per day by gavage, two weeks, 1 h after last administration, mean ± SD. The text has this:
(§5) In the present example, db/db mice (line name BKS.Cg-Dock7^m+/+Lepr^db/Nju) were used to perform hypoglycemic efficacy evaluation test of animals (blood glucose level and leptin). The limonoid compound was selected from obacunone, isoobacunoic acid and obacunone glycoside, and dapagliflozin single administration group, obacunone single administration group, isoobacunoic acid single administration group, obacunone glycoside single administered group, and respective combination thereof with dapagliflozin administration groups were set. Conditions for experimental feeding: as type II diabetes model mice, 6-week-old SPF-grade db/db mice were purchased from the Nanjing Model Biology Institute, and subjected to experimental feeding after 7 days of preliminary feeding. It should be noted that the conditions for raising the mice were as follows: the temperature was 23±1° C., the humidity was 55±10%, the lights were turned on between 7 am and 7 pm (the lights were turned off at other time), and the mice were allowed to freely take in water and feed. […] The data were expressed as mean and standard deviation. The data before and after were analyzed by t-test, and P<0.05 was considered statistically significant.

For assay [5] the test system is unchanged. Description: Serum leptin by ELISA in db/db mouse type II diabetes model (Example 2). Particulars: single agent 0.04 g/kg per day by gavage, two weeks, mean ± SD.
Description: as §5
On the technique in general: An ELISA detects its analyte on a solid surface through an enzyme-linked reagent.

Assay [6] has as its system mouse pancreatic islet β-cell injury model (STZ). The experiment in a line: Blood glucose in STZ mouse pancreatic islet β-cell injury model (Example 1, canagliflozin). The conditions noted are these: STZ ICR mice; single agent 0.02 g/kg per day by gavage, two weeks; 1 h after last administration; mean ± SD.
Description: In this example, a mouse pancreatic islet β-cell injury model was established by modeling ICR mice with streptozotocin (STZ) (Li Nan et al., Protective effect of pine pollen on kidney damage in diabetic nephropathy mice, Science and Technology Review, 2014, 32 (4/5): 95-99), and used to complete the evaluation of hypoglycemic effect in animals (this model could simulate pancreatic islet β-cell damage state of type I and type II diabetics). The limonoid compound was selected from the group consisting of limonin, isolimonic acid, limonin glycoside, and isolimonic acid glycoside, and canagliflozin single administration group, limonin single administration group, isolimonic acid single administration group, limonin glycoside singe administration group, isolimonic acid glycoside singe administration group, and respective combination thereof with canagliflozin administration groups were set.
as §1

The structures appear in SMILES notation.

On to `OC[C@H]1O[C@@H](c2ccc(Cl)c(Cc3ccc(O[C@H]4CCOC4)cc3)c2)[C@H](O)[C@@H](O)[C@@H]1O` [Empagliflozin, empagliflozin], for which the Blood glucose value in assay [1] was determined as 13.9 ± 2.0 mmol/L.
In the case of `OC[C@H]1O[C@@H](c2ccc(F)c(Cc3cc4ccccc4s3)c2)[C@H](O)[C@@H](O)[C@@H]1O` [Ipragliflozin, ipragliflozin], the Insulin in assay [2] turned out to be 7.61 ± 1.03 pg/mL. The Blood glucose value in assay [3] stood at 10.3 ± 2.3 mmol/L.
`CCOc1ccc(Cc2cc([C@@H]3O[C@H](CO)[C@@H](O)[C@H](O)[C@H]3O)ccc2Cl)cc1` [Dapagliflozin, dapagliflozin]: the Blood glucose value in assay [4] worked out at 12.0 ± 2.9 mmol/L. The Leptin in assay [5] turned out to be 25.34 ± 5.26 pg/mL.
Regarding `Cc1ccc([C@@H]2O[C@H](CO)[C@@H](O)[C@H](O)[C@H]2O)cc1Cc1ccc(-c2ccc(F)cc2)s1` [Canagliflozin, canagliflozin], the Blood glucose value in assay [6] stood at 19.1 ± 4.1 mmol/L.
